Patent US20250019385A1, “SPIROCYCLIC ANNULATED 2-AMINO-3-CYANO THIOPHENES AND DERIVATIVES FOR THE TREATMENT OF CANCER” (Boehringer Ingelheim International GmbH, priority 2023, published 2025)

Tested on: Ba/F3 cells KRAS G12C
Test: Ba/F3 proliferation assay (KRAS G12C)
Assay type: cell-based
Details: Mus musculus, BaF3, 72 h, AlamarBlue viability
Procedure: (§1) Ba/F3 cells are ordered from DSMZ (ACC300, Lot17) and grown in RPMI-1640 (ATCC 30-2001)+10% FCS+10 ng/mL IL-3 at 37° C. in 5% […] atmosphere. Plasmids containing KRASG12 mutants (i.e. […], G12C, G12V) are obtained from GeneScript. To generate KRASG12-dependent Ba/F3 models, Ba/F3 cells are transduced with retroviruses containing vectors that harbor KRASG12 isoforms. Platinum-E cells (Cell Biolabs) are used for retrovirus packaging. Retrovirus is added to Ba/F3 cells. To ensure infection, 4 μg/mL polybrene is added and cells are spinfected. Infection efficiency is confirmed by measuring GFP-positive cells using a cell analyzer. Cells with an infection efficiency of 10% to 20% are further cultivated and puromycin selection with 1 μg/mL is initiated. As a control, parental Ba/F3 cells are used to show selection status. Selection is considered successful when parental Ba/F3 cells cultures died. To evaluate the transforming potential of KRASG12 mutations, the growth medium is no longer supplemented with IL-3. Ba/F3 cells harboring the empty vector are used as a control. Approximately ten days before conducting the experiments, puromycin is left out.
(§2) For proliferation assays, Ba/F3 cells are seeded into 384-well plates at 1.5×1 (M cells/60 μL in growth media (RPMI-1640+10% FCS). Compounds (10 mM stock in DMSO) are added at logarithmic dose series using the ECHO acoustic liquid handler system (Beckman Coulter), normalizing for added DMSO and including DMSO controls. All compound treatments are performed in technical duplicates. For the TO time point measurement, untreated cells are analyzed at the time of compound addition. Treated cells are incubated for 72 h at 37° C. with 5% CO2 and cell viability is measured in the PerkinElmer Envision Multimode Reader using AlamarBlue™ (ThermoFisher) viability stain. Viability (stated as percent of control) is defined as relative fluorescence units RFU of each well divided by the RFU of cells in DMSO controls. IC50 values are determined from viability measurements by non-linear regression using a four-parameter model.
In the case of CO[C@H]1CCN(C)[C@@H]1[C@H](C)Oc1nc(-c2onc3c2CCC[C@@]32CCCc3sc(N)c(C#N)c32)nc2c1CN(C1COC1)C[C@]21CCOC1 [I-57], the IC50 is reported as 3 nM. Molecule C[C@H](Oc1nc(-c2onc3c2CCC[C@@]32CCCc3sc(N)c(C#N)c32)nc2c1COC[C@]21CCOC1)[C@@H]1CCCN1C [I-54] has an IC50 of 2 nM. Cc1nn([C@@H]2CCOC2)c2nc(-c3onc4c3CCC[C@@]43CCCc4sc(N)c(C#N)c43)nc(O[C@@H](C)[C@@H]3CCCN3C)c12 [I-42] gave an IC50 of 17 nM. CCn1c(=O)n([C@@H]2CCCOC2)c2nc(-c3onc4c3CCC[C@@]43CCCc4sc(N)c(C#N)c43)nc(O[C@@H](C)C34CCCN3CCC4)c21 [I-36] gave an IC50 of 31 nM. With CCn1c(=O)n([C@@H]2CCOC2)c2nc(-c3onc4c3CCC[C@@]43CCCc4sc(N)c(C#N)c43)nc(O[C@@H](C)[C@@H]3CCCN3C)c21 [I-21] the IC50 was 8 nM. C[C@H](Oc1nc(-c2onc3c2CCC[C@@]32CCCc3sc(N)c(C#N)c32)nc2c1n(C)c(=O)n2[C@H]1CCC[C@@H]1O)[C@@H]1CCCN1C [I-19] gave an IC50 of 406 nM. C[C@H](Oc1nc(-c2onc3c2CCC[C@@]32CCCc3sc(N)c(C#N)c32)nc2c1n(C)c(=O)n2C1CCOCC1)[C@@H]1CCCN1C [I-10] showed an IC50 of 43 nM.

Tested on: Ba/F3 cells KRAS G12V
Test: Ba/F3 proliferation assay (KRAS G12V)
Assay type: cell-based
Details: Mus musculus, BaF3, 72 h, AlamarBlue viability
Procedure: as §1, §2
In the case of CO[C@H]1CCN(C)[C@@H]1[C@H](C)Oc1nc(-c2onc3c2CCC[C@@]32CCCc3sc(N)c(C#N)c32)nc2c1CN(C1COC1)C[C@]21CCOC1 [I-57], the IC50 is reported as 2 nM. C[C@H](Oc1nc(-c2onc3c2CCC[C@@]32CCCc3sc(N)c(C#N)c32)nc2c1COC[C@]21CCOC1)[C@@H]1CCCN1C [I-54] showed an IC50 of 1 nM. With Cc1nn([C@@H]2CCOC2)c2nc(-c3onc4c3CCC[C@@]43CCCc4sc(N)c(C#N)c43)nc(O[C@@H](C)[C@@H]3CCCN3C)c12 [I-42] the IC50 was 11 nM. CCn1c(=O)n([C@@H]2CCCOC2)c2nc(-c3onc4c3CCC[C@@]43CCCc4sc(N)c(C#N)c43)nc(O[C@@H](C)C34CCCN3CCC4)c21 [I-36] showed an IC50 of 18 nM. CCn1c(=O)n([C@@H]2CCOC2)c2nc(-c3onc4c3CCC[C@@]43CCCc4sc(N)c(C#N)c43)nc(O[C@@H](C)[C@@H]3CCCN3C)c21 [I-21] showed an IC50 of 5 nM. C[C@H](Oc1nc(-c2onc3c2CCC[C@@]32CCCc3sc(N)c(C#N)c32)nc2c1n(C)c(=O)n2[C@H]1CCC[C@@H]1O)[C@@H]1CCCN1C [I-19] gave an IC50 of 243 nM. In the case of C[C@H](Oc1nc(-c2onc3c2CCC[C@@]32CCCc3sc(N)c(C#N)c32)nc2c1n(C)c(=O)n2C1CCOCC1)[C@@H]1CCCN1C [I-10], the IC50 is reported as 16 nM.

Tested on: LOVO cells
Test: LOVO CTG proliferation assay (120 h) (CRC, G13D)
Assay type: cell-based
Details: Homo sapiens
Procedure: LOVO cells (ATCC No. CCL-229) are dispensed into black 384-well plates, flat and clear bottom (Greiner, PNr. 781091) at a density of 1000 cells per well in 60 μl DMEM (Sigma D6429)+10% FCS (fetal calf serum, HyClone, SH30084.03). Cells are incubated overnight at 37° C. in a humidified tissue culture incubator at 5% CO2. Compounds (10 mM stock in DMSO) are added at logarithmic dose series using the ECHO acoustic liquid handler system (Beckman Coulter), normalizing for added DMSO and including DMSO controls. All compound treatments are performed in technical duplicates. For the TO time point measurement, untreated cells are analyzed at the time of compound addition. Plates are incubated for 120 h, and cell viability is measured using CellTiter-Glo luminescent cell viability reagent (Promega product code G7570). Viability (stated as percent of control) is defined as relative luminescence units RLU of each well divided by the RLU of cells in DMSO controls. IC50 values are determined from viability measurements by non-linear regression using a four-parameter model.
IC50 values of representative compounds according to the invention measured with these assays in the indicated cell lines are presented in Table 46.
With CO[C@H]1CCN(C)[C@@H]1[C@H](C)Oc1nc(-c2onc3c2CCC[C@@]32CCCc3sc(N)c(C#N)c32)nc2c1CN(C1COC1)C[C@]21CCOC1 [I-57] the IC50 was 39 nM. Molecule C[C@H](Oc1nc(-c2onc3c2CCC[C@@]32CCCc3sc(N)c(C#N)c32)nc2c1COC[C@]21CCOC1)[C@@H]1CCCN1C [I-54] has an IC50 of 4 nM. Cc1nn([C@@H]2CCOC2)c2nc(-c3onc4c3CCC[C@@]43CCCc4sc(N)c(C#N)c43)nc(O[C@@H](C)[C@@H]3CCCN3C)c12 [I-42] gave an IC50 of 107 nM. CCn1c(=O)n([C@@H]2CCCOC2)c2nc(-c3onc4c3CCC[C@@]43CCCc4sc(N)c(C#N)c43)nc(O[C@@H](C)C34CCCN3CCC4)c21 [I-36] showed an IC50 of 9 nM. Work on CCn1c(=O)n([C@@H]2CCOC2)c2nc(-c3onc4c3CCC[C@@]43CCCc4sc(N)c(C#N)c43)nc(O[C@@H](C)[C@@H]3CCCN3C)c21 [I-21] yielded an IC50 of 9 nM. Work on C[C@H](Oc1nc(-c2onc3c2CCC[C@@]32CCCc3sc(N)c(C#N)c32)nc2c1n(C)c(=O)n2[C@H]1CCC[C@@H]1O)[C@@H]1CCCN1C [I-19] yielded an IC50 of 60 nM. Molecule C[C@H](Oc1nc(-c2onc3c2CCC[C@@]32CCCc3sc(N)c(C#N)c32)nc2c1n(C)c(=O)n2C1CCOCC1)[C@@H]1CCCN1C [I-10] has an IC50 of 53 nM.

Tested on: not listed separately
Test: Plasma protein binding assay (PPB), equilibrium dialysis
Assay type: in vitro ADME
Details: bovine, 10% FCS in PBS, read-out: PPB 10% FCS (% fu)
Procedure: Binding of test compounds to plasma was determined using equilibrium dialysis (ED) and quantitative mass spectrometry interfaced with liquid chromatography (LC-MS). In brief, ED was performed with dialysis devices consisting of two chambers separated by a semipermeable membrane with a molecular weight cut-off of 5-10 kg/mol. One chamber was filled with 10% FCS in PBS containing 1-10 μmol/L test compound and the other chamber was filled with phosphate-buffer saline (PBS) with or without dextran. The dialysis chamber was incubated for 3-5 hours at 37° C. After incubation, protein was precipitated from aliquots of each chamber and the concentration of test compound in the supernatant of the plasma-containing compartment (cserum) and of the buffer-containing compartment (cbuffer) was determined by LC-MS. The fraction of unbound test compound (not bound to plasma) (f) was calculated according to the following equation: […]
Work on CO[C@H]1CCN(C)[C@@H]1[C@H](C)Oc1nc(-c2onc3c2CCC[C@@]32CCCc3sc(N)c(C#N)c32)nc2c1CN(C1COC1)C[C@]21CCOC1 [I-57] yielded a fraction unbound of 0.28. For C[C@H](Oc1nc(-c2onc3c2CCC[C@@]32CCCc3sc(N)c(C#N)c32)nc2c1COC[C@]21CCOC1)[C@@H]1CCCN1C [I-54], the fraction unbound was 0.34. With Cc1nn([C@@H]2CCOC2)c2nc(-c3onc4c3CCC[C@@]43CCCc4sc(N)c(C#N)c43)nc(O[C@@H](C)[C@@H]3CCCN3C)c12 [I-42] the fraction unbound was 0.11. Work on CCn1c(=O)n([C@@H]2CCCOC2)c2nc(-c3onc4c3CCC[C@@]43CCCc4sc(N)c(C#N)c43)nc(O[C@@H](C)C34CCCN3CCC4)c21 [I-36] yielded a fraction unbound of 0.06. In the case of CCn1c(=O)n([C@@H]2CCOC2)c2nc(-c3onc4c3CCC[C@@]43CCCc4sc(N)c(C#N)c43)nc(O[C@@H](C)[C@@H]3CCCN3C)c21 [I-21], the fraction unbound is reported as 0.16. In the case of C[C@H](Oc1nc(-c2onc3c2CCC[C@@]32CCCc3sc(N)c(C#N)c32)nc2c1n(C)c(=O)n2[C@H]1CCC[C@@H]1O)[C@@H]1CCCN1C [I-19], the fraction unbound is reported as 0.05. In the case of C[C@H](Oc1nc(-c2onc3c2CCC[C@@]32CCCc3sc(N)c(C#N)c32)nc2c1n(C)c(=O)n2C1CCOCC1)[C@@H]1CCCN1C [I-10], the fraction unbound is reported as 0.24.
